Laboratory results as given in ChEMBL document CHEMBL4483862, “Open-source discovery of chemical leads for next-generation chemoprotective antimalarials” (2018).

Test system: Plasmodium berghei
Assay: Luciferase/luciferin-expressing antifolate-resistant parasites were used to infect a culture of HepG2 cells that were pre-incubated with compounds. Infected hepatocytes emit light due to the luciferase reaction. Assay results are presented as the percent inhibition of light emission compared to control. […]
Assay type: functional
Conditions: sporozoite; for IC90: read-out: LUCIFERASE INFECTION ASSAY - IC90
[1] = read-out: LUCIFERASE INFECTION ASSAY - IC50

SMILES | IC90 | other results
O=C(CSc1nnc(C2CC2)o1)NCCC1=CCCCC1 | 3.33 µM | IC50 (PBLUC_HILL_SLOPE 15.1, PBLUC_R_SQUARED 0.587, read-out: LUCIFERASE INFECTION ASSAY - IC50): 2.88 µM
CC1CN(Cc2csc(Nc3ccccc3)n2)CC(C)O1 (configuration not stated) | 9.23 µM | IC50 (PBLUC_HILL_SLOPE 20.5, 3.85, PBLUC_R_SQUARED 0.234, 0.496, read-out: LUCIFERASE INFECTION ASSAY - IC50): 7.33 µM
CN(Cc1ccccc1)S(=O)(=O)N1CCC(C(O)(c2ccccc2)c2ccccc2)CC1 | 9.51 µM | IC50 (PBLUC_HILL_SLOPE 2.67, PBLUC_R_SQUARED 0.571, read-out: LUCIFERASE INFECTION ASSAY - IC50): 4.18 µM
CCCCOc1ccc(Nc2nc(C(N)Cc3ccc(OC)cc3)cs2)nn1 (configuration not stated) | 3.76 µM | IC50 (PBLUC_HILL_SLOPE 10.9, PBLUC_R_SQUARED 0.27, read-out: LUCIFERASE INFECTION ASSAY - IC50): 3.08 µM
NC(=S)N/N=C/c1ncc(C(F)(F)F)cc1Cl | 4.07 µM | IC50 (HEPG2TOX_HILL_SLOPE 1.78, HEPG2TOX_R_SQUARED 0.942, PBLUC_HILL_SLOPE 40.1, PBLUC_R_SQUARED 0.426, read-out: LUCIFERASE INFECTION ASSAY - IC50): 3.85 µM
CN(C)c1ccccc1-c1cn2c(-c3cccc(O)c3)cnc2cn1 | > 9.99 µM | IC50 [1]: > 9.99 µM
O=c1c2ccccc2nc2c3ccccc3c(NCCCN3CCOCC3)nn12 | > 10 µM | IC50 [1]: 9.05 µM
COCCCn1c(C)cc(C(=O)CSc2nc3scc(-c4ccccc4)c3c(=O)n2C)c1C | > 10 µM | IC50 (FFLUC_HILL_SLOPE 7.71, FFLUC_R_SQUARED 0.356, PBLUC_HILL_SLOPE 2.63, PBLUC_R_SQUARED 0.68, read-out: LUCIFERASE INFECTION ASSAY - IC50): 6.41 µM
CCCn1c(N)c(C(=O)CN(C)Cc2cccc(Cl)c2Cl)c(=O)[nH]c1=O | 3.38 µM | IC50 (PBLUC_HILL_SLOPE 149, PBLUC_R_SQUARED 0.302, read-out: LUCIFERASE INFECTION ASSAY - IC50): 3.33 µM
O=C(COc1ccccc1SCc1ccc(Cl)cc1)NNC(=O)c1ccc(Cl)cc1 | > 7.15 µM | IC50 [1]: > 7.15 µM
CN(C)C(=O)N1CCCC(C(=O)Nc2nc(-c3c(F)cccc3F)cs2)C1 (configuration not stated) | > 10 µM | IC50 (PBLUC_HILL_SLOPE 2.82, PBLUC_R_SQUARED 0.52, read-out: LUCIFERASE INFECTION ASSAY - IC50): 5.62 µM
CCN(CC)CCn1c(NC(=O)c2cc3c(s2)CCCC3)nc2ccccc21 | > 10 µM | IC50 (PBLUC_HILL_SLOPE 4.87, PBLUC_R_SQUARED 0.309, read-out: LUCIFERASE INFECTION ASSAY - IC50): 6.91 µM
O=C1/C(=C/c2ccc(F)cc2)COC/C1=C\c1ccc(F)cc1 | > 10.6 µM | IC50 (HEPG2TOX_HILL_SLOPE 8.86, HEPG2TOX_R_SQUARED 0.951, read-out: LUCIFERASE INFECTION ASSAY - IC50): > 10.6 µM
COc1ccc(OCCN2CCN(c3ccc(S(=O)(=O)NC(C)C)cn3)CC2)cc1 | > 10 µM | IC50 [1]: > 10 µM
O=C(CCn1ccnn1)Nc1ccc(Sc2ccc(Br)cc2)cc1 | > 10 µM | IC50 (HEPG2TOX_HILL_SLOPE 6.85, HEPG2TOX_R_SQUARED 0.647, PBLUC_HILL_SLOPE 1.94, PBLUC_R_SQUARED 0.683, read-out: LUCIFERASE INFECTION ASSAY - IC50): 6.08 µM
CCn1c(CNC(=O)C2CCN(c3ccc(C#N)cn3)CC2)nc2ccccc21 | > 10 µM | IC50 (PBLUC_HILL_SLOPE 0.433, PBLUC_R_SQUARED 0.506, read-out: LUCIFERASE INFECTION ASSAY - IC50): 4.94 µM
C=c1onc(-c2c(F)cccc2Cl)c1=C1NC(c2cc(C(F)(F)F)cc(C(F)(F)F)c2)=NO1 | > 6.71 µM | IC50 (PBLUC_HILL_SLOPE 0.442, PBLUC_R_SQUARED 0.157, read-out: LUCIFERASE INFECTION ASSAY - IC50): > 6.71 µM
O=C(NCc1ccc(S(=O)(=O)N2CCOCC2)s1)c1ccc(Cl)cc1 | > 8.23 µM | IC50 [1]: > 8.23 µM
COc1ccc(CN2CCN(c3nc4c(Cl)c(C)nn4c4ccccc34)CC2)cc1OC | > 10 µM | IC50 (HEPG2TOX_HILL_SLOPE 0.0984, HEPG2TOX_R_SQUARED 0.313, PBLUC_HILL_SLOPE 1.53, PBLUC_R_SQUARED 0.0755, read-out: LUCIFERASE INFECTION ASSAY - IC50): > 10 µM
COc1cc(-c2nc3ccc(NC(=O)c4cccs4)cn3n2)cc(OC)c1OC | 6.23 µM | IC50 (PBLUC_HILL_SLOPE 2.1, PBLUC_R_SQUARED 0.836, read-out: LUCIFERASE INFECTION ASSAY - IC50): 2.19 µM
COc1cc(N(CC(=O)Nc2ccc(Cl)cc2)S(=O)(=O)c2ccc(Cl)cc2)c(Cl)cc1Cl | > 6.18 µM | IC50 (FFLUC_HILL_SLOPE 12.3, FFLUC_R_SQUARED 0.349, HEPG2TOX_HILL_SLOPE 3.41, HEPG2TOX_R_SQUARED 0.407, PBLUC_HILL_SLOPE 12, PBLUC_R_SQUARED 0.0202, read-out: LUCIFERASE INFECTION ASSAY - IC50): 5.6 µM

SMILES | IC90 | other results
COc1cc(OC)cc(-c2cn3c(-c4ccc5c(c4)OCO5)cnc3cn2)c1 | > 8.79 µM | IC50 (HEPG2TOX_HILL_SLOPE 7.71, HEPG2TOX_R_SQUARED 0.876, PBLUC_HILL_SLOPE 4.45, PBLUC_R_SQUARED 0.518, read-out: LUCIFERASE INFECTION ASSAY - IC50): 5.54 µM
Cc1cc(=O)n2nc(CSc3nc4ccc(Cl)cc4c(=O)n3CC(C)C)sc2n1 | 4.07 µM | IC50 (PBLUC_HILL_SLOPE 10, PBLUC_R_SQUARED 0.71, read-out: LUCIFERASE INFECTION ASSAY - IC50): 3.27 µM
CCCCCc1ccc(-c2nnc(SCC(=O)c3ccccc3)[nH]2)cc1 | > 9.03 µM | IC50 (PBLUC_HILL_SLOPE 2.65, PBLUC_R_SQUARED 0.501, read-out: LUCIFERASE INFECTION ASSAY - IC50): > 9.03 µM
COc1ccc(CCNC(=O)c2c(S)n(-c3ccc(C)cc3)c3cccc[n+]23)cc1 | 9.33 µM | IC50 (HEPG2TOX_HILL_SLOPE 12.1, HEPG2TOX_R_SQUARED 0.69, PBLUC_HILL_SLOPE 9.57, PBLUC_R_SQUARED 0.712, read-out: LUCIFERASE INFECTION ASSAY - IC50): 7.42 µM
CN(Cc1ccc(N2CCCCC2)cc1)C(=O)c1cc(-c2cccnc2)nc2ccccc12 | > 10 µM | IC50 (HEPG2TOX_HILL_SLOPE 0.393, HEPG2TOX_R_SQUARED 0.924, PBLUC_HILL_SLOPE 2.39, PBLUC_R_SQUARED 0.338, read-out: LUCIFERASE INFECTION ASSAY - IC50): 4.33 µM
COc1ccc(C(C)NC(=O)CCCN2C(=O)c3ccccc3C2=O)cc1F (configuration not stated) | > 10 µM | IC50 [1]: > 10 µM
CCC(C)c1ccccc1OS(=O)(=O)c1ccc2c(c1)NC(=O)CO2 (configuration not stated) | > 10 µM | IC50 [1]: > 10 µM
CC(=O)N1CCc2cc(NC(=O)c3cc(C)n(C4CCCCC4)c3C)ccc21 | 0.349 µM | IC50 (PBLUC_HILL_SLOPE 2.13, PBLUC_R_SQUARED 0.772, read-out: LUCIFERASE INFECTION ASSAY - IC50): 0.125 µM
O=[N+]([O-])c1ccc2c(c1)S(=O)(=O)CC2Sc1cccs1 (configuration not stated) | > 10.1 µM | IC50 (FFLUC_HILL_SLOPE 0.919, FFLUC_R_SQUARED 0.527, PBLUC_HILL_SLOPE 1.82, PBLUC_R_SQUARED 0.11, read-out: LUCIFERASE INFECTION ASSAY - IC50): > 10.1 µM
CS(=O)(=O)c1ccc(CN2CCN3C(C(=O)Nc4cccc(C(F)(F)F)c4)=COC3=NC2=O)cc1 | > 10 µM | IC50 [1]: > 10 µM
Cc1c(C(=O)Nc2nonc2-c2ccc(F)cc2)oc2ccc(F)cc12 | 8.3 µM | IC50 (HEPG2TOX_HILL_SLOPE 16.1, HEPG2TOX_R_SQUARED 0.611, PBLUC_HILL_SLOPE 12, PBLUC_R_SQUARED 0.0677, read-out: LUCIFERASE INFECTION ASSAY - IC50): 6.91 µM
Clc1cccc(-c2cc3[nH]c(NCc4ccccc4)nc3cn2)c1 | > 10 µM | IC50 [1]: > 10 µM
Cc1cc2ncc(-c3ccnc(SCC(=O)C(C)(C)C)n3)c(C)n2n1 | > 9.28 µM | IC50 [1]: > 9.28 µM
CC(=O)c1cccc(-c2cnc3c(Nc4cccc(OC(F)(F)C(F)F)c4)nccn23)c1 | 6 µM | IC50 (HEPG2TOX_HILL_SLOPE 2.66, HEPG2TOX_R_SQUARED 0.947, PBLUC_HILL_SLOPE 1.76, PBLUC_R_SQUARED 0.616, read-out: LUCIFERASE INFECTION ASSAY - IC50): 1.72 µM
O=C(COC(=O)CNS(=O)(=O)/C=C/c1ccccc1)NC1CCCCC1 | > 10 µM | IC50 [1]: > 10 µM
N#Cc1ccc(-c2cnc3cnc(-c4ccc(CNc5ccccc5)cc4)cn23)cc1 | 6.67 µM | IC50 (HEPG2TOX_HILL_SLOPE 0.183, HEPG2TOX_R_SQUARED 0.0935, PBLUC_HILL_SLOPE 1.81, PBLUC_R_SQUARED 0.744, read-out: LUCIFERASE INFECTION ASSAY - IC50): 1.98 µM
O=C(Nc1ccc2nc(-c3ccccc3Cl)[nH]c2c1)c1ccc(=O)[nH]n1 | 4.84 µM | IC50 (HEPG2TOX_HILL_SLOPE 0.281, HEPG2TOX_R_SQUARED 0.366, PBLUC_HILL_SLOPE 7.23, PBLUC_R_SQUARED 0.542, read-out: LUCIFERASE INFECTION ASSAY - IC50): 3.58 µM
N#Cc1cccc(NC(=O)CNc2cc(C(F)(F)F)ccc2N2CCCC2)c1 | > 10 µM | IC50 [1]: > 10 µM
CC(=O)c1ccc(NC(=O)N2[C@@H]3CC[C@@H](C3)[C@H]2c2nc3cccc(OCc4ccccc4)c3[nH]2)cc1 | > 10 µM | IC50 (FFLUC_HILL_SLOPE 3.04, FFLUC_R_SQUARED 0.885, read-out: LUCIFERASE INFECTION ASSAY - IC50): > 10 µM
C[n+]1c(-c2ccccc2)cc(CCCCc2cc(-c3ccccc3)[n+](C)c(-c3ccccc3)c2)cc1-c1ccccc1 | > 10 µM | IC50 (HEPG2TOX_HILL_SLOPE 8.54, HEPG2TOX_R_SQUARED 0.649, PBLUC_HILL_SLOPE 17.9, PBLUC_R_SQUARED 0.599, read-out: LUCIFERASE INFECTION ASSAY - IC50): 9.47 µM
